# Test results: patent US12564650B2, “Carbonic anhydrase IX-targeting radioactive diagnostic and therapeutic medicament and method for preparing same” (NORROY BIOSCIENCE CO., LTD., priority 2022, dated 2026)
# Test system: 786-O tumor (human renal clear cell adenocarcinoma cells)
# Experiment: Competitive inhibition assay in 786-O mouse model
# Type: in vivo, NOD-SCID mice
# Details: cold medicament 40 times the mass of hot medicament, 30 minutes before; scan 1 hour
# Source text: The experimental 786-O animal model was provided by Biaodu Baiao Biotechnology (Shanghai) Co., Ltd. The model was a 786-O tumor subcutaneous heterotopic transplant tumor model established based on NOD-SCID mice. This model was a mouse model constructed for human renal clear cell adenocarcinoma cells. Two animal models were randomly selected and injected with cold medicament NYM0005 through tail vein. The injection dose was 40 times the mass of the injected hot medicament (^68Ga-NYM0005). The order of administration was as follow: injecting the hot medicament ^68Ga-NYM0005 30 minutes after the administration of the cold medicament. After pre-anesthesia with an appropriate concentration of isoflurane/oxygen mixed gas prior to scanning, the animals were placed in a MicroPET/CT imaging cabin (SNPC-303 SuperNova, Pingsheng Medical Technology (Kunshan) Co., Ltd.), and anesthesia was maintained with isoflurane/air mixed gas. A MicroPET/CT scan was performed 1 hour after the administration of the hot medicament. The scanned images were obtained after reconstruction by means of the device software, and the scanned images were analyzed using PMOD software.
smiles,measurement,value
NS(=O)(=O)c1nnc(NC(=O)CCCc2cn(CCCCC(=O)N[C@@H](CC(=O)O)C(=O)NCCCCNC(=O)CN3CCN(CC(=O)O)CCN(CC(=O)O)CC3)nn2)s1 [NYM005],blocking of 68Ga-NYM005 uptake of the tumor by cold medicament,significantly block
